Experimental data from PubChem BioAssay (NCI).
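In this assay, cells in 96-well plates receive the compound at five concentrations for 48 hours. Endpoints are linearly interpolated between the surrounding concentrations. TGI marks complete inhibition of growth.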

Tests used:
Test in all cases: NCI tumour cell line growth inhibition, 48 h
786-0 renal = system: 786-0 renal
A498 renal = system: A498 renal
A549 NSCLC = system: A549 NSCLC
ACHN renal = system: ACHN renal
BT-549 breast = system: BT-549 breast
CAKI-1 renal = system: CAKI-1 renal
CCRF-CEM leukemia = system: CCRF-CEM leukemia
COLO 205 colon = system: COLO 205 colon
DLD-1 colon = system: DLD-1 colon
DMS 114 small cell lung = system: DMS 114 small cell lung
DMS 273 small cell lung = system: DMS 273 small cell lung
DU-145 prostate = system: DU-145 prostate
EKVX NSCLC = system: EKVX NSCLC
HCC-2998 colon = system: HCC-2998 colon
HCT-116 colon = system: HCT-116 colon
HCT-15 colon = system: HCT-15 colon
HL-60(TB) leukemia = system: HL-60(TB) leukemia
HOP-18 NSCLC = system: HOP-18 NSCLC
HOP-62 NSCLC = system: HOP-62 NSCLC
HOP-92 NSCLC = system: HOP-92 NSCLC
HS 578T breast = system: HS 578T breast
HT29 colon = system: HT29 colon
IGROV1 ovarian = system: IGROV1 ovarian
K-562 leukemia = system: K-562 leukemia
KM12 colon = system: KM12 colon
KM20L2 colon = system: KM20L2 colon
LOX IMVI melanoma = system: LOX IMVI melanoma
LXFL 529 NSCLC = system: LXFL 529 NSCLC
M14 melanoma = system: M14 melanoma
M19-MEL melanoma = system: M19-MEL melanoma
MALME-3M melanoma = system: MALME-3M melanoma
MCF7 breast = system: MCF7 breast
MDA-MB-231 breast = system: MDA-MB-231 breast
MDA-MB-435 = system: MDA-MB-435
MDA-N = system: MDA-N
MOLT-4 leukemia = system: MOLT-4 leukemia
NCI-H226 lung = system: NCI-H226 lung
NCI-H23 lung = system: NCI-H23 lung
NCI-H460 lung = system: NCI-H460 lung
NCI-H522 lung = system: NCI-H522 lung
NCI/ADR-RES ovarian = system: NCI/ADR-RES ovarian
OVCAR-3 ovarian = system: OVCAR-3 ovarian
OVCAR-4 ovarian = system: OVCAR-4 ovarian
OVCAR-5 ovarian = system: OVCAR-5 ovarian
OVCAR-8 ovarian = system: OVCAR-8 ovarian
P388 leukemia = system: P388 leukemia
P388/ADR leukemia = system: P388/ADR leukemia
PC-3 prostate = system: PC-3 prostate
RPMI-8226 leukemia = system: RPMI-8226 leukemia
RXF 393 renal = system: RXF 393 renal
SF-268 CNS = system: SF-268 CNS
SF-295 CNS = system: SF-295 CNS
SF-539 CNS = system: SF-539 CNS
SK-MEL-2 melanoma = system: SK-MEL-2 melanoma
SK-MEL-28 melanoma = system: SK-MEL-28 melanoma
SK-MEL-5 melanoma = system: SK-MEL-5 melanoma
SK-OV-3 ovarian = system: SK-OV-3 ovarian
SN12C renal = system: SN12C renal
SN12K1 renal = system: SN12K1 renal
SNB-19 CNS = system: SNB-19 CNS
SNB-75 CNS = system: SNB-75 CNS
SNB-78 CNS = system: SNB-78 CNS
SR leukemia = system: SR leukemia
SW-620 colon = system: SW-620 colon
T-47D breast = system: T-47D breast
TK-10 renal = system: TK-10 renal
U251 CNS = system: U251 CNS
UACC-257 melanoma = system: UACC-257 melanoma
UACC-62 melanoma = system: UACC-62 melanoma
UO-31 renal = system: UO-31 renal
XF 498 CNS = system: XF 498 CNS

O=C(/C=C/c1ccccc1)CCN1CCOCC1
TGI (786-0 renal): 18.8 µM
TGI (A498 renal): 44 µM
TGI (A549 NSCLC): 56.8 µM
TGI (ACHN renal): 28.6 µM
TGI (BT-549 breast): 17.9 µM
TGI (CAKI-1 renal): 16.4 µM
TGI (CCRF-CEM leukemia): 12.1 µM
TGI (COLO 205 colon): 20 µM
TGI (DLD-1 colon): 22.1 µM
TGI (DMS 114 small cell lung): 23.9 µM
TGI (DMS 273 small cell lung): 35.9 µM
TGI (DU-145 prostate): 40.4 µM
TGI (EKVX NSCLC): 30.6 µM
TGI (HCC-2998 colon): 38 µM
TGI (HCT-116 colon): 28 µM
TGI (HCT-15 colon): 24.4 µM
TGI (HL-60(TB) leukemia): 16.4 µM
TGI (HOP-18 NSCLC): 32.2 µM
TGI (HOP-62 NSCLC): 64 µM
TGI (HOP-92 NSCLC): 38.1 µM
TGI (HS 578T breast): > 88.5 µM
TGI (HT29 colon): 32.8 µM
TGI (IGROV1 ovarian): 27.1 µM
TGI (K-562 leukemia): 12.6 µM
TGI (KM12 colon): 18.6 µM
TGI (KM20L2 colon): 31.2 µM
TGI (LOX IMVI melanoma): 24.8 µM
TGI (LXFL 529 NSCLC): 8.43 µM
TGI (M14 melanoma): 29 µM
TGI (M19-MEL melanoma): 28.3 µM
TGI (MALME-3M melanoma): 36.4 µM
TGI (MCF7 breast): 24.1 µM
TGI (MDA-MB-231 breast): 35.1 µM
TGI (MDA-MB-435): 30.9 µM
TGI (MDA-N): 30.1 µM
TGI (MOLT-4 leukemia): 29.7 µM
TGI (NCI-H226 lung): 51.6 µM
TGI (NCI-H23 lung): 31.8 µM
TGI (NCI-H460 lung): 35.8 µM
TGI (NCI-H522 lung): 8.13 µM
TGI (NCI/ADR-RES ovarian): 55.5 µM
TGI (OVCAR-3 ovarian): 33.3 µM
TGI (OVCAR-4 ovarian): 42.5 µM
TGI (OVCAR-5 ovarian): 27.1 µM
TGI (OVCAR-8 ovarian): 38.5 µM
TGI (P388 leukemia): > 27.2 µM
TGI (P388/ADR leukemia): 7.76 µM
TGI (PC-3 prostate): 31.5 µM
TGI (RPMI-8226 leukemia): 7.54 µM
TGI (RXF 393 renal): 26.1 µM
TGI (SF-268 CNS): 38.3 µM
TGI (SF-295 CNS): 38.8 µM
TGI (SF-539 CNS): 25 µM
TGI (SK-MEL-2 melanoma): 44.5 µM
TGI (SK-MEL-28 melanoma): 27.3 µM
TGI (SK-MEL-5 melanoma): 33.5 µM
TGI (SK-OV-3 ovarian): 51.6 µM
TGI (SN12C renal): 35.9 µM
TGI (SN12K1 renal): 31 µM
TGI (SNB-19 CNS): 39.9 µM
TGI (SNB-75 CNS): 51.6 µM
TGI (SNB-78 CNS): 47.3 µM
TGI (SR leukemia): 53.3 µM
TGI (SW-620 colon): 16.5 µM
TGI (T-47D breast): 44 µM
TGI (TK-10 renal): 26.7 µM
TGI (U251 CNS): 31.7 µM
TGI (UACC-257 melanoma): 21.3 µM
TGI (UACC-62 melanoma): 31.1 µM
TGI (UO-31 renal): 26.6 µM
TGI (XF 498 CNS): 29.1 µM
